What was measured:
Assay in all cases: Kinase selectivity, DiscoverX scanMAX Kinase assay panel (% control)
Format in all cases: binding
[1] = target: T1, kinases of the scanMAX Kinase assay panel (Homo sapiens, UniProt Q13470); conditions: kinase TNK1; 1 uM in DMSO
T1 construct: purchased DiscoverX Co. (contract measurement) scanMAX Kinase assay panel
T1 sequence (Q13470 1-666): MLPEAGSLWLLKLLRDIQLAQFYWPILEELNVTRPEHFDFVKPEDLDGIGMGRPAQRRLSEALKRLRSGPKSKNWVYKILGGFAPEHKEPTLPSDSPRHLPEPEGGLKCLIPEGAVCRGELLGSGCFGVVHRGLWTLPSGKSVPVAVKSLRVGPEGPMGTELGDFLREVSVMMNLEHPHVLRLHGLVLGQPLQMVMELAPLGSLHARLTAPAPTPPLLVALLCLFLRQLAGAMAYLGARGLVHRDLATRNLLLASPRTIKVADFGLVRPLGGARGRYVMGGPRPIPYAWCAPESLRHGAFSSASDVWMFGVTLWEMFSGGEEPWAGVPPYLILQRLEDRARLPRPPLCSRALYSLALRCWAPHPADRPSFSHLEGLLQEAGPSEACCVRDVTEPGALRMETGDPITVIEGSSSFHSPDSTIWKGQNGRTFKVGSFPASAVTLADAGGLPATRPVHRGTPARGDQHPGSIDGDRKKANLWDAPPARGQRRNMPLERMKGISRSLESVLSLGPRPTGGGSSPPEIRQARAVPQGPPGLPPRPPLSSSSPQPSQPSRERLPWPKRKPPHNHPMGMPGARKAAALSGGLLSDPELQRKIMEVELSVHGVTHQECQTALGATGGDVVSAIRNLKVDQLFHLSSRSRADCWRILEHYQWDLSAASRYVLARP
Summary of the method: (§1)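 Single-point screen, 1 uM cpd in DMSO. % ctrl = (cpd − pos ctrl)/(neg ctrl − pos ctrl)×100; pos ctrl = 0%, DMSO neg ctrl = 100%. Hit cutoff <35%.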

[2] = target: T2, kinases of the scanMAX Kinase assay panel (Homo sapiens, UniProt P27448); conditions: MARK3; 1 uM
T2 construct: purchased DiscoverX Co. (contract measurement) scanMAX Kinase assay panel
T2 sequence (P27448 whole entry): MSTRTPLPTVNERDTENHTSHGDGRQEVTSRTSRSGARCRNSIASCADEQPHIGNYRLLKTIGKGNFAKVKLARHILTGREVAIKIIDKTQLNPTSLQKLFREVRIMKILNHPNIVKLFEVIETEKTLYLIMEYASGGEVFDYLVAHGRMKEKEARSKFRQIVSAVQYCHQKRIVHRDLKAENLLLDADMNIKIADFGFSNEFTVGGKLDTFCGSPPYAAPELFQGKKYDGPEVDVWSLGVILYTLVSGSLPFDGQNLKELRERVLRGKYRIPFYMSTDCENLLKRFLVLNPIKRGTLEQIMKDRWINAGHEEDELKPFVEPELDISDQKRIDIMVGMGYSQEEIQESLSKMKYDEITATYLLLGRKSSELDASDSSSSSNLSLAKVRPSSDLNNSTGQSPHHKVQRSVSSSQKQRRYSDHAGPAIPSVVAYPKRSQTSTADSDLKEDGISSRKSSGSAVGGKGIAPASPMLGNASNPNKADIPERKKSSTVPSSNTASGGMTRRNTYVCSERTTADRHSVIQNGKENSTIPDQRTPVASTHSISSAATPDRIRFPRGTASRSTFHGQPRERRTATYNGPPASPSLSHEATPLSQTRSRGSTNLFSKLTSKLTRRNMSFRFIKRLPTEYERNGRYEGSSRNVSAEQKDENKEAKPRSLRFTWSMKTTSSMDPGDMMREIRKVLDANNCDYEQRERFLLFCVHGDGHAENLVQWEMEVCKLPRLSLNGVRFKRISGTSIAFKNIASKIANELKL
Summary of the method: as §1

[3] = target: T3, kinases of the scanMAX Kinase assay panel (Homo sapiens, UniProt O15197); conditions: EPHB6; 1 uM
T3 construct: purchased DiscoverX Co. (contract measurement) scanMAX Kinase assay panel
T3 sequence (O15197 32-1021): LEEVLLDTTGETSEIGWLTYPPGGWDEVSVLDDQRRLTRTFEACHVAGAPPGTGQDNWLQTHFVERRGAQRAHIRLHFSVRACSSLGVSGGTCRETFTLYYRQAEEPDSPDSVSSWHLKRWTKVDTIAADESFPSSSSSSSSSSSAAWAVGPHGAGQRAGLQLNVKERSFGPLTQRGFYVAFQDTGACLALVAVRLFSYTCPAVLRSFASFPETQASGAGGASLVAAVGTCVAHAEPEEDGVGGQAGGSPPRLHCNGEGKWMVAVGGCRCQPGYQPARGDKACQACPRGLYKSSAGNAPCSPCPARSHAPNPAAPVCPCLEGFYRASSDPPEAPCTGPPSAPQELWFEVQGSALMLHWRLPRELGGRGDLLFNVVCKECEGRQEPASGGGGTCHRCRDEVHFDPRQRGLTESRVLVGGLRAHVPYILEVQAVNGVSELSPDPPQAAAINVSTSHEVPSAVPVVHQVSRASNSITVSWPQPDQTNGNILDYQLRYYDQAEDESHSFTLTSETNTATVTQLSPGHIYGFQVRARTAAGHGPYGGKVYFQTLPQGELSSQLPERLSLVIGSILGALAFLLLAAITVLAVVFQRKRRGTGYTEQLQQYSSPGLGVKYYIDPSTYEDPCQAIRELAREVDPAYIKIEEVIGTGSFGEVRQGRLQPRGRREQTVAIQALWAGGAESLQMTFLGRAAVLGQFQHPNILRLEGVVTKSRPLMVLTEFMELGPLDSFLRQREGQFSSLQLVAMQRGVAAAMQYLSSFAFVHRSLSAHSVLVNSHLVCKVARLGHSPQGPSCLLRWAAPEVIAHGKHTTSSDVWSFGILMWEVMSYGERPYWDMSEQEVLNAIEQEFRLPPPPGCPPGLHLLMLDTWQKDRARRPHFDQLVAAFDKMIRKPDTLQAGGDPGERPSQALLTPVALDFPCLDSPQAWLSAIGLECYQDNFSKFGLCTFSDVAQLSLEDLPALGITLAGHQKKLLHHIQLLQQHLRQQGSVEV
Summary of the method: as §1

[4] = target: T4, kinases of the scanMAX Kinase assay panel (Homo sapiens, UniProt O15111); conditions: IKK-alpha; 1 uM
T4 construct: purchased DiscoverX Co. (contract measurement) scanMAX Kinase assay panel
T4 sequence (O15111 1-745): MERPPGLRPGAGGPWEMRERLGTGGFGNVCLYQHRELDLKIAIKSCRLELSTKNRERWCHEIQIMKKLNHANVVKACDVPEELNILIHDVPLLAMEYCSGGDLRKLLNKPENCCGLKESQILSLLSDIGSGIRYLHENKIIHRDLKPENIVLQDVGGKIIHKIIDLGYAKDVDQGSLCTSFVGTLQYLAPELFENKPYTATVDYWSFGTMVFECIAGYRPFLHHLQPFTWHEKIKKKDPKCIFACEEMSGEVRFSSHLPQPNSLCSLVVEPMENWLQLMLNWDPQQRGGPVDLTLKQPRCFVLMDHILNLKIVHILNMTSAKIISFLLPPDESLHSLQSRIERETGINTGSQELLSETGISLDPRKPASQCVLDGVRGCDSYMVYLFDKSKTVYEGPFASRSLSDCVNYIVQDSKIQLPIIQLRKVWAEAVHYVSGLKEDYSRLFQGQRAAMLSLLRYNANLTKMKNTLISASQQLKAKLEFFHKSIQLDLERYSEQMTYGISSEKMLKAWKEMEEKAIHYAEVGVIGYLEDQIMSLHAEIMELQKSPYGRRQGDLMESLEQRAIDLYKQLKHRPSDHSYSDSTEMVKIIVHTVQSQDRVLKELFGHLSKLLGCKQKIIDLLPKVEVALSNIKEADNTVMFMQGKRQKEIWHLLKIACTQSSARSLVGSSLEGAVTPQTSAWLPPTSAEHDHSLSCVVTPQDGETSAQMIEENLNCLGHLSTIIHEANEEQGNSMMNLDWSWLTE
Summary of the method: as §1

Compound	remaining binding at 1 µM [1] [%]	remaining binding at 1 µM [2] [%]	remaining binding at 1 µM [3] [%]	remaining binding at 1 µM [4] [%]
CNc1nc(Nc2ccc(C(=O)N3CCOCC3)cc2OC)nc2[nH]cc(C#N)c12 [Example 1, 2-((2-methoxy-4-(morpholine-4-carbonyl)phenyl)amino)-4-(methylamino)-7H-pyrrolo[2,3-d]pyrimidine-5-carbonitrile]	85	100	84	57
CC1(Nc2nc(Nc3cnn([C@H]4CCN(C5COC5)C[C@@H]4F)c3Cl)nc3[nH]cc(C#N)c23)CC1 [Example 52, 2-((5-chloro-1-((3S,4S)-3-fluoro-1-(oxetane-3-yl)piperidine-4-yl)-1H-pyrazole-4-yl)amino)((1-methylcyclopropyl)amino)-7H-pyrrolo[2,3-d]pyrimidine-5-carbonitrile]	18	29	3.7	3.4
CCNc1nc(Nc2ccc(C(=O)N3CCC(N4CCOCC4)CC3)cc2OC)nc2[nH]cc(C(F)(F)F)c12 [Example 104, (4-((4-(ethylamino)-5-(trifluoromethyl)-7H-pyrrolo[2,3-d]pyrimidine-2-yl)amino)-3-methoxyphenyl)(4-morpholinopiperidine-1-yl)methanone]	16	86	95	93

From patent US11208412B2 (DAEGU-GYEONGBUK MEDICAL INNOVATION FOUNDATION, priority 2017, dated 2021)
